Data on 29 compounds can be found in patent US12195457B2, “Aromatic ring derivative as immunoregulation and preparation method and application of aromatic ring derivative” (SHANGHAI JEMINCARE PHARMACEUTICALS CO., LTD, priority 2018, dated 2025).

Some results are limits rather than exact numbers.

Series [1] has as its target T1, S1P1 (Homo sapiens, UniProt P21453).
T1 construct: host or cells: CHO-K1
Briefly: S1P1 mediated inhibition of forskolin induced cAMP (PathHunter CHO-K1 EDG1 cells). The class given is cell-based. The procedure: The cell line used in the test was PathHunter® CHO-K1 EDG1 β-Arrestin Cell Line, supplier: DiscoverX, catalog number: 93-0207C2. The inhibitory effect of compounds on S1P1 mediated forskolin induced cAMP activity was evaluated.
Different concentrations of compounds and a final concentration of 0.6 μM forskolin were added to the test plate wells for each test, and the mixture was centrifuged at 1000 rpm for 10 seconds. A frozen cell was taken, washed twice with HBSS buffer and resuspended. 5000 cells were added to test plates per well, the mixture was shaked for 20 seconds, centrifuged at 1000 rpm for 10 seconds, and incubated at room temperature for 60 minutes. Anti-cAMP-Eu^2+-Cryptate and cAMP-d2 were added. Then the mixture was shaked for 20 seconds, centrifuged at 1000 rpm for 10 seconds, incubated at room temperature for 60 minutes, and the plate was read on an Envision plate reader. The data was analyzed by nonlinear regression to determine the EC50 of the compounds for the inhibition of cAMP induced by forskolin.

In series [2] the target is T1, S1P1. Briefly: S1P1 receptor internalization (FACS, CHO-K1 EDG1 cells). Format: cell-based. The note with it: 2 hours incubation; read-out: S1P1 internalized EC50. Here is the method:
1. CHO-K1 DEG1 cells (PathHunter® CHO-K1 EDG1 β-Arrestin Cell Line, supplier: DiscoverX, catalog number: 93-0207C2), and culture medium was removed (F12 medium 1000 mL, 10% FBS, 800 μg/mL G418, 300 μg/mL Hygromycin, 1% Glutamax and 1% Pen/Strep), the cells were washed with 2 mL of DPBS, 5 mL of cell dispersion (Invitrogen-13151014) was added to disperse the cells, the cells were incubated in an incubator at 37° C. for 1-2 minutes. The flask was gently patted to make the cells fall off. 5 mL of growth medium was added, and pipette was gently blown to suspend the cells. Cell counting was performed using Vi-Cell. The mixture was centrifuged at 1000 rpm for 5 minutes at room temperature, the supernatant was gently poured out, and the cells in FACS buffer were resuspended to a concentration of 1.5e6 cells per mL. 2. S1P and compounds were diluted with DMSO in a 384-well plate, and a volume of 500 nL was transferred to a 96 V-well plate (Cat #Axygen-WIPP02280). 3. 50 μL of cells were added to a 96-well plate; 4. The 96-well plate was incubated in a 37° C. 5% CO2 incubator for 2 hours. 5. The cells were centrifuged at room temperature at 1500 rpm for 5 minutes to remove the supernatant. 6. 100 μL of FACS buffer was added to the resuspended cells, centrifuged at 1500 rpm for 5 minutes, and the supernatant was removed. 7. The anti-human S1P1/EDG-1-Alex647 (R&D-FAB1864R) and anti-IgG2B-Alex647 (R&D-IC0041R) antibodies were diluted 200 times with FACS buffer. 8. 50 μL of antibody was added to 96 wells, and the plates were transferred to 4° C. for 30 minutes. 9. The cells were centrifuged at room temperature at 1500 rpm for 5 minutes to remove the supernatant. 10. 100 μL of FACS buffer was added to the resuspended cells. 11. The cells were centrifuged at 4° C. at 1500 rpm for 5 minutes to remove the supernatant. 12. After washing, the cells were resuspended in 50 μL of FACS buffer per well. 13. Cell samples were read using iQue Screener PLUS-VBR.

Series [3] in a line: In vivo pharmacokinetics in rats, intravenous injection and oral administration. The note with it: rat; for AUC(0-inf) / clearance / half-life / Cmax: male, Sprague-Dawley, plasma. Also on record: species or system Sprague Dawley rats. Here is the method: In this experimental embodiment, in vivo pharmacokinetic evaluation was performed in rats by intravenous injection and oral administration.
Experimental methods and conditions: male Sprague Dawley rats were given the test compounds 1 mg/kg (solvent 5% DMSO/15% Solutol/80% Saline) by intravenous injection and 1 mg/kg (solvent 0.5% MC) by oral gavage respectively. 5 min, 15 min, 30 min, 1 hr, 2 hr, 4 hr, 6 hr, 8 hr, 24 hr after administration, blood was collected from submandibular vein, each sample was collected about 0.20 mL, and heparin sodium was used for anti coagulation. After collection, the sample was placed on ice, and the blood was centrifuged to be measured within one hour. Blood drug concentration in plasma was detected by liquid chromatography tandem mass spectrometry (LC/MS/MS), and the pharmacokinetic parameters were calculated by Phoenix WinNonlin software.

The target of series [4] is T1, S1P1. As to the kind of experiment: S1P1 mediated β-arrestin reporter activation (PathHunter CHO-K1 EDG1 β-Arrestin Cell Line). Format: cell-based. Conditions: 90 minutes incubation at 37° C. The procedure: The cell line used in the test was PathHunter® CHO-K1 EDG1 β-Arrestin Cell Line, supplier: DiscoverX, catalog number: 93-0207C2. According to the supplier's instructions, the cells were added to the test plate according to 25 μL cell suspension containing 5000 cells per well, and cultured at 37° C. for 20 hours. Compounds of 10 concentrations diluted 4 times were added to the cell culture medium and incubated at 37° C. for 90 minutes. The detection solution was prepared, 12 μL per well, incubated at room temperature for 60 minutes, the plate was read on an Envision plate reader. The data was analyzed by nonlinear regression to determine the EC50 of β-arrestin activity.

Where [5] appears, read: intravenous administration 1 mg/kg.

T1 sequence (P21453 whole entry): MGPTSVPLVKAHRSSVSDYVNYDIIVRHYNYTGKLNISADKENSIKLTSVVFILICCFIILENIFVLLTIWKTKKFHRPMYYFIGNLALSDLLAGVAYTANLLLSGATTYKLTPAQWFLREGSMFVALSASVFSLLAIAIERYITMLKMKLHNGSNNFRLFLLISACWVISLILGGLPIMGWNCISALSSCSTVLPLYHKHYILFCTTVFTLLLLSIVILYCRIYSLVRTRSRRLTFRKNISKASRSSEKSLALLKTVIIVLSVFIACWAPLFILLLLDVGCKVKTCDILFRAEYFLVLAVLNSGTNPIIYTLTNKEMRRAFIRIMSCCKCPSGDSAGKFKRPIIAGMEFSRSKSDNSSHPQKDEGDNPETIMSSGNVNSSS

Turning to `O=C(O)C[C@H]1CCc2c1[nH]c1ccc(OCc3ccc(C4CCCC4)c(C(F)(F)F)c3)cc21` [APD334, reference compound], at S1P1 [1], the EC50 (as a rule, the concentration that produces a half-maximal response) is 2.07 nM. The EC50 on S1P1 [2] worked out at 6.26 nM. Moreover, in series [3] (setting [5]), the AUC(0-inf) (in general, total exposure, with the tail of the curve extrapolated) worked out at 9410 ng·h/mL; the clearance is 1.83 mL/min/kg; the half-life – broadly, the time needed for the level to fall by half in the phase considered – was 5.2 h. In addition, in series [3] (oral administration 1 mg/kg), the AUC(0-inf) worked out at 4440 ng·h/mL; the Cmax (in general, the highest concentration seen after dosing) was 341 ng/mL; the half-life was 5.5 h; the F was determined as 46.3%.

On to `O=C(O)CCc1cc2cc(OCc3ccc(C4CCCC4)c(C(F)(F)F)c3)ccc2[nH]1` [Compound 1], for which the EC50 at S1P1 [1] is < 0.05 nM; on S1P1 [4], 0.95 nM.

Consider `CCc1c(CCC(=O)O)[nH]c2ccc(OCc3ccc(C4CCCC4)c(C(F)(F)F)c3)cc12` [Compound 2], for which the results for the EC50 at S1P1 [1], on S1P1 [4] and at S1P1 [2] were 0.07 nM, 1.62 nM and 0.32 nM, respectively.

With `O=C(O)CCn1cnc2cc(OCc3ccc(C4CCCC4)c(C(F)(F)F)c3)ccc21` [Compound 4], on S1P1 [1], the EC50 was 0.5 nM.

The compound `O=C(O)CCc1nc2cc(OCc3ccc(C4CCCC4)c(C(F)(F)F)c3)ccc2[nH]1` [Compound 6] came in with an EC50 at S1P1 [1] of 0.16 nM.

With `O=C(O)CCn1ccc2cc(OCc3ccc(C4CCCC4)c(C(F)(F)F)c3)ccc21` [Compound 12], the EC50 was 0.65 nM on S1P1 [1] and 1.96 nM at S1P1 [4].

`O=C(O)CCc1[nH]c2ccc(OCc3ccc(C4CCCC4)c(C(F)(F)F)c3)cc2c1F` [Compound 14] had an EC50 at S1P1 [1] of 0.07 nM. This compound also returned an EC50 on S1P1 [4] of 1.86 nM. In addition, on S1P1 [2], the EC50 worked out at 0.14 nM. For the same compound, in series [3] (setting [5]), the AUC(0-inf) was 10800 ng·h/mL, the clearance is 1.55 mL/min/kg and the half-life is 4.1 h. In series [3] (oral administration 1 mg/kg), the AUC(0-inf) was 2340 ng·h/mL, the concentration peaked (Cmax) at 258 ng/mL, the half-life is 4 h and the F worked out at 21.3%.

For the compound `N#Cc1c(CCC(=O)O)[nH]c2ccc(OCc3ccc(C4CCCC4)c(C(F)(F)F)c3)cc12` [Compound 17], the EC50 came out at 0.21 nM at S1P1 [1] and 1.78 nM at S1P1 [4].

Regarding `O=C(O)CCc1cc2cc(OCc3ccc(C4CCCC4)c(C(F)(F)F)c3)c(F)cc2[nH]1` [Compound 18], the figures for the EC50 on S1P1 [1], on S1P1 [4] and on S1P1 [2] were 0.08 nM, 1.1 nM and 0.69 nM, respectively.

With `O=C(O)CCc1[nH]c2ccc(OCc3ccc(C4=CCCC4)c(C(F)(F)F)c3)cc2c1Cl` [Compound 21], the EC50 on S1P1 [1] is 0.035 nM; on S1P1 [4], 2.26 nM.

As to `O=C(O)CCc1[nH]c2ccc(OCc3ccc(C4CCC4)c(C(F)(F)F)c3)cc2c1Cl` [Compound 22], the EC50 at S1P1 [1] worked out at 0.11 nM; on S1P1 [4] it was 1.65 nM.

Take `O=C(O)CCc1[nH]c2ccc(OCc3ccc(C4CCCCC4)c(C(F)(F)F)c3)cc2c1Cl` [Compound 23]: the EC50 at S1P1 [1] worked out at 0.032 nM; at S1P1 [4], 3.82 nM.

Consider `O=C(O)CCc1[nH]c2ccc(OCc3ccc(OC4CCCC4)c(C(F)(F)F)c3)cc2c1Cl` [Compound 24], for which the results for the EC50 on S1P1 [1] and at S1P1 [4] were 0.0072 nM and 1.73 nM, respectively.

Take `O=C(O)CCc1[nH]c2ccc(OCc3cnc(C4CCCC4)c(C(F)(F)F)c3)cc2c1Cl` [Compound 25]: the concentration for a half-maximal effect (EC50) on S1P1 [1] is 0.0017 nM; on S1P1 [4], 1.23 nM.

With `O=C(O)CCc1[nH]c2ccc(OCc3ccc(C4CCOC4)c(C(F)(F)F)c3)cc2c1Cl` (centres unmarked) [Compound 26], the EC50 at S1P1 [1] amounted to 0.0041 nM; at S1P1 [4] it was 1.11 nM.

Turning to `O=C(O)CCc1[nH]c2ccc(OCc3ccc(C4CCOCC4)c(C(F)(F)F)c3)cc2c1Cl` [Compound 27], the figures for the EC50 on S1P1 [1] and at S1P1 [4] were 0.0021 nM and 1.03 nM, respectively.

Regarding `O=C(O)CCc1cc2cc(OCc3ccc(N4CCCC4)c(C(F)(F)F)c3)ccc2[nH]1` [Compound 28], at S1P1 [4], it took 2.08 nM to reach a half-maximal effect (EC50).

Regarding `O=C(O)CCc1cc2cc(OCc3cnc(C4CCCC4)c(C(F)(F)F)c3)ccc2[nH]1` [Compound 29], the midpoint of the response on S1P1 [4], the EC50, lay at 2.15 nM.

Turning to `O=C(O)CCc1[nH]c2ccc(OCc3cnc(C4CCCC4)c(C(F)(F)F)c3)cc2c1F` [Compound 30], the EC50 worked out at 0.15 nM at S1P1 [1] and 0.62 nM on S1P1 [4].

`O=C(O)CCc1cc2cc(OCc3ccc(C4CCOC4)c(C(F)(F)F)c3)ccc2[nH]1` (centres unmarked) [Compound 31]: the EC50 on S1P1 [1] came to 0.18 nM; on S1P1 [4], 2.63 nM.

Take `Cc1c(CCC(=O)O)[nH]c2ccc(OCc3ccc(C4CCOC4)c(C(F)(F)F)c3)cc12` (centres unmarked) [Compound 32]: the EC50 stood at 0.56 nM at S1P1 [1] and 1.47 nM on S1P1 [4].

Consider `O=C(O)CCc1[nH]c2ccc(OCc3ccc(C4CCOC4)c(C(F)(F)F)c3)cc2c1F` (centres unmarked) [Compound 33], for which the EC50 was 0.057 nM on S1P1 [1] and 1.1 nM on S1P1 [4].

In turn, `O=C(O)CCc1cc2cc(OCc3ccc(C4CCOCC4)c(C(F)(F)F)c3)ccc2[nH]1` [Compound 34] came in with an EC50 on S1P1 [4] of 5.35 nM.

For the compound `Cc1c(CCC(=O)O)[nH]c2ccc(OCc3ccc(C4CCOCC4)c(C(F)(F)F)c3)cc12` [Compound 35], the EC50 stood at 0.34 nM on S1P1 [1] and 0.88 nM at S1P1 [4].

`O=C(O)CCc1[nH]c2ccc(OCc3ccc(C4CCOCC4)c(C(F)(F)F)c3)cc2c1F` [Compound 36]: the values for the EC50 at S1P1 [1] and on S1P1 [4] were 0.3 nM and 0.85 nM, respectively.

In the case of `O=C(O)CCc1cc2cc(OCc3ccc(OC4CCCC4)c(C(F)(F)F)c3)ccc2[nH]1` [Compound 37], the EC50 on S1P1 [1] came to 0.2 nM; on S1P1 [4], 1.72 nM.

On S1P1 [4], `Cc1c(CCC(=O)O)[nH]c2ccc(OCc3ccc(OC4CCCC4)c(C(F)(F)F)c3)cc12` [Compound 38] came in with an EC50 of 1.11 nM.

As for `O=C(O)CCc1[nH]c2ccc(OCc3ccc(OC4CCCC4)c(C(F)(F)F)c3)cc2c1F` [Compound 39], the results for the EC50 on S1P1 [1] and on S1P1 [4] were 0.027 nM and 0.76 nM, respectively.

In turn, `Cc1c(CCC(=O)O)[nH]c2ccc(OCc3cnc(C4CCCC4)c(C(F)(F)F)c3)cc12` [Compound 40] registered an EC50 at S1P1 [4] of 1.18 nM.
